In article PMC6576746, “Rational discovery of dual-indication multi-target PDE/Kinase inhibitor for precision anti-cancer therapy using structural systems pharmacology” (PLoS Computational Biology, 2019):

Legend:
Assay in all cases: biochemical
Design in all cases: DiscoverX KinomeScan competition binding assay across human kinases; per cent of control at 10 and 100 uM
[1] = biological target: T1, ABL1(H396P)-phosphorylated (Homo sapiens, UniProt P00519, H396P); conditions: competition binding, % of control; read-out: Percent Control (100 uM Levosimendan)
T1 construct: phosphorylated
In short: (§1)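 KinomeScan competition binding was run across a human kinase panel at 10 μM and 100 μM levosimendan. Results are %control = (test − positive control)/(negative control − positive control) × 100.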

ALK(C1156Y) = ALK(C1156Y) (Homo sapiens, UniProt Q9UM73, C1156Y); conditions: competition binding, % of control; read-out: Percent Control (100 uM Levosimendan)
In short: as §1

ASK1 = biological target: T2, ASK1 (Homo sapiens, UniProt Q99683); conditions: competition binding, % of control; read-out: Percent Control (100 uM Levosimendan)
T2 construct: gene MAP3K5
In short: as §1

BMPR1B = BMPR1B (Homo sapiens, UniProt O00238); conditions: competition binding, % of control
In short: as §1

CSF1R = CSF1R (Homo sapiens, UniProt P07333); conditions: competition binding, % of control
In short: as §1

CSNK1G3 = CSNK1G3 (Homo sapiens, UniProt Q9Y6M4); conditions: competition binding, % of control
In short: as §1

EPHA2 = EPHA2 (Homo sapiens, UniProt P29317); conditions: competition binding, % of control; read-out: Percent Control (100 uM Levosimendan)
In short: as §1

HUNK = HUNK (Homo sapiens, UniProt P57058); conditions: competition binding, % of control; read-out: Percent Control (100 uM Levosimendan)
In short: as §1

MEK4 = biological target: T3, MEK4 (Homo sapiens, UniProt P45985); conditions: competition binding, % of control; read-out: Percent Control (100 uM Levosimendan)
T3 construct: gene MAP2K4
In short: as §1

MEK5 = biological target: T4, MEK5 (Homo sapiens, UniProt Q13163); conditions: competition binding, % of control
T4 construct: gene MAP2K5
In short: as §1

NIK = biological target: T5, NIK (Homo sapiens, UniProt Q99558); conditions: competition binding, % of control; read-out: Percent Control (100 uM Levosimendan)
T5 construct: gene MAP3K14
In short: as §1

PIK3CA(Q546K) = PIK3CA(Q546K) (Homo sapiens, UniProt P42336, Q546K); conditions: competition binding, % of control; read-out: Percent Control (100 uM Levosimendan)
In short: as §1

PIK3CD = PIK3CD (Homo sapiens, UniProt O00329); conditions: competition binding, % of control; read-out: Percent Control (100 uM Levosimendan)
In short: as §1

PIM3 = PIM3 (Homo sapiens, UniProt Q86V86); conditions: competition binding, % of control
In short: as §1

ROCK2 = ROCK2 (Homo sapiens, UniProt O75116); conditions: competition binding, % of control
In short: as §1

STK35 = STK35 (Homo sapiens, UniProt Q8TDR2); conditions: competition binding, % of control; read-out: Percent Control (100 uM Levosimendan)
In short: as §1

TBK1 = TBK1 (Homo sapiens, UniProt Q9UHD2); conditions: competition binding, % of control
In short: as §1

TNK2 = TNK2 (Homo sapiens, UniProt Q07912); conditions: competition binding, % of control; read-out: Percent Control (100 uM Levosimendan)
In short: as §1

[2] = read-out: Percent Control (10 uM Levosimendan)
[3] = read-out: Percent Control (100 uM Levosimendan)

Chain of ROCK2 (O75116 whole entry): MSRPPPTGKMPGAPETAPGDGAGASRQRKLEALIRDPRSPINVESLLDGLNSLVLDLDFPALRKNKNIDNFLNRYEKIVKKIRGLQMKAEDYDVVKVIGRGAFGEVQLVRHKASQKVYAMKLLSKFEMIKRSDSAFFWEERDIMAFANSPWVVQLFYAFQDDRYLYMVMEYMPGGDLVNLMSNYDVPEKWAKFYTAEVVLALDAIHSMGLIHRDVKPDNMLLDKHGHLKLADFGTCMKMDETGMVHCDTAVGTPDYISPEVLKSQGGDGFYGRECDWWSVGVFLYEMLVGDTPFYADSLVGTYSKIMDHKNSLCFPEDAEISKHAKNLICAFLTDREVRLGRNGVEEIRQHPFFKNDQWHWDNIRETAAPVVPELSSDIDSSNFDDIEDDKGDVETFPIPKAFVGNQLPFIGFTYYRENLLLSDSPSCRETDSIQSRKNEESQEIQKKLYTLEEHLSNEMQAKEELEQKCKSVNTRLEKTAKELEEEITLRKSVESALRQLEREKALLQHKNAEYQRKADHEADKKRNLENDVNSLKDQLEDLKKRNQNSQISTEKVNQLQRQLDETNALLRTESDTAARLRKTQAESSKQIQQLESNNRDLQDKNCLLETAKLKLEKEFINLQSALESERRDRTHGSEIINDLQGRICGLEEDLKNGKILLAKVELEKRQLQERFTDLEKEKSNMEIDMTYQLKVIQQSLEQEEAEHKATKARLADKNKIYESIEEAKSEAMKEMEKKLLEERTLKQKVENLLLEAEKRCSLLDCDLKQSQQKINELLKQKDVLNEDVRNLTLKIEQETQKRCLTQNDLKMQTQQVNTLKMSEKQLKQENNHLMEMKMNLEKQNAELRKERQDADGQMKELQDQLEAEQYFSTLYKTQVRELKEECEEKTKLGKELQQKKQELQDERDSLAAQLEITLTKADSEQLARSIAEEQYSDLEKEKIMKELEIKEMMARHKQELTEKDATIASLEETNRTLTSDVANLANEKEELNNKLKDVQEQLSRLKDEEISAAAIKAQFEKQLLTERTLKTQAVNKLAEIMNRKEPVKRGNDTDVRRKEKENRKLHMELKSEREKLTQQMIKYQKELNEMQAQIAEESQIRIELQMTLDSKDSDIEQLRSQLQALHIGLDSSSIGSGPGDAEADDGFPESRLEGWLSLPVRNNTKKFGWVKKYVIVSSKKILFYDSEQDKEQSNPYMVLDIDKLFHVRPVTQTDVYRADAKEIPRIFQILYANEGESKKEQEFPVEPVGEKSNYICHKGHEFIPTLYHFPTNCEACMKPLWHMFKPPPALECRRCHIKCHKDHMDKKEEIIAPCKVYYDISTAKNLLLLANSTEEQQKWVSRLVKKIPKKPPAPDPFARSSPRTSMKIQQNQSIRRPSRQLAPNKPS
Chain of BMPR1B (O00238 whole entry): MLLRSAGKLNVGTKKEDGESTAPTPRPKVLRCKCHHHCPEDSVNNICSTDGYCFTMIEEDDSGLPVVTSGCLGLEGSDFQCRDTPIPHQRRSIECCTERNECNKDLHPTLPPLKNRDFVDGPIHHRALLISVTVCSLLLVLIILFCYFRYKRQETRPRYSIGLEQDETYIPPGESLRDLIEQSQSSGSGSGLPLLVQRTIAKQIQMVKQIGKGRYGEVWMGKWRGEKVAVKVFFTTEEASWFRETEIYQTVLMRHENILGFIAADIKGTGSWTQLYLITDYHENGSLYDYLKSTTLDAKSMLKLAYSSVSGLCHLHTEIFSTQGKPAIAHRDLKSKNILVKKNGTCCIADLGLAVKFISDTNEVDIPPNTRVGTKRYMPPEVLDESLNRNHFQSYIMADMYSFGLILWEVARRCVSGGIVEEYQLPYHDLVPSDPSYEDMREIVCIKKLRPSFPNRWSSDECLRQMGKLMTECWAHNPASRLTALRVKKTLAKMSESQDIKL
Chain of TBK1 (Q9UHD2 whole entry): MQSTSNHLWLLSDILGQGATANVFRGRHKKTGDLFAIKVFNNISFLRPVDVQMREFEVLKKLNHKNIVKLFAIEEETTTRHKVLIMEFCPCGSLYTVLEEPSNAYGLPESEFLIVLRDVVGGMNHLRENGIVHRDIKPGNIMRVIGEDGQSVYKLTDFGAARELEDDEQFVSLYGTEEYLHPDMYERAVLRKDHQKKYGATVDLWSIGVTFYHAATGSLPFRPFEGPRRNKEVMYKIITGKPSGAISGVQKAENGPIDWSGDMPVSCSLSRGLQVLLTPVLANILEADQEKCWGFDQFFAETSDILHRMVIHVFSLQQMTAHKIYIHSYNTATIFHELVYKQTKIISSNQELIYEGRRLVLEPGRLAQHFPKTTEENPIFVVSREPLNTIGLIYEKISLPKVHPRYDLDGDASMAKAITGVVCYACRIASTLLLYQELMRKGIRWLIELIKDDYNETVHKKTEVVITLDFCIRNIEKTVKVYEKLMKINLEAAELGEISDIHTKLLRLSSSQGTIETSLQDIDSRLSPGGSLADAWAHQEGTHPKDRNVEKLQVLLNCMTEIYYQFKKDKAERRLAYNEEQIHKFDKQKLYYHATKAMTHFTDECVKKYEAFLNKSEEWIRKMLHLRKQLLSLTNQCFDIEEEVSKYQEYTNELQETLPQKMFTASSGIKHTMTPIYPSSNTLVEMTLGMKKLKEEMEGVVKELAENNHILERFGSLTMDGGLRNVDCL
T4 sequence (Q13163 whole entry): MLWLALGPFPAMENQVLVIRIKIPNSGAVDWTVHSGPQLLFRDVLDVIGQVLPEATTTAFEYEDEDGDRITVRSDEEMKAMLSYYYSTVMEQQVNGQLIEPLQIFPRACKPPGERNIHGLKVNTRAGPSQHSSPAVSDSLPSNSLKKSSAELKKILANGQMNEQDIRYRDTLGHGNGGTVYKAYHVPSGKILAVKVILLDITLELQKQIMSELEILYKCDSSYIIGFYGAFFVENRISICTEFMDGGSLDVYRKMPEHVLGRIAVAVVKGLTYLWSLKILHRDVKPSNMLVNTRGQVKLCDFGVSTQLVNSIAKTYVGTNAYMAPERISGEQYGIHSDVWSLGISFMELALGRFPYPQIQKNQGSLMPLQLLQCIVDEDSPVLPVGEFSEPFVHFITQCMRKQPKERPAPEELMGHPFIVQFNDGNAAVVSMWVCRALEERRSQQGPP
Chain of CSF1R (P07333 whole entry): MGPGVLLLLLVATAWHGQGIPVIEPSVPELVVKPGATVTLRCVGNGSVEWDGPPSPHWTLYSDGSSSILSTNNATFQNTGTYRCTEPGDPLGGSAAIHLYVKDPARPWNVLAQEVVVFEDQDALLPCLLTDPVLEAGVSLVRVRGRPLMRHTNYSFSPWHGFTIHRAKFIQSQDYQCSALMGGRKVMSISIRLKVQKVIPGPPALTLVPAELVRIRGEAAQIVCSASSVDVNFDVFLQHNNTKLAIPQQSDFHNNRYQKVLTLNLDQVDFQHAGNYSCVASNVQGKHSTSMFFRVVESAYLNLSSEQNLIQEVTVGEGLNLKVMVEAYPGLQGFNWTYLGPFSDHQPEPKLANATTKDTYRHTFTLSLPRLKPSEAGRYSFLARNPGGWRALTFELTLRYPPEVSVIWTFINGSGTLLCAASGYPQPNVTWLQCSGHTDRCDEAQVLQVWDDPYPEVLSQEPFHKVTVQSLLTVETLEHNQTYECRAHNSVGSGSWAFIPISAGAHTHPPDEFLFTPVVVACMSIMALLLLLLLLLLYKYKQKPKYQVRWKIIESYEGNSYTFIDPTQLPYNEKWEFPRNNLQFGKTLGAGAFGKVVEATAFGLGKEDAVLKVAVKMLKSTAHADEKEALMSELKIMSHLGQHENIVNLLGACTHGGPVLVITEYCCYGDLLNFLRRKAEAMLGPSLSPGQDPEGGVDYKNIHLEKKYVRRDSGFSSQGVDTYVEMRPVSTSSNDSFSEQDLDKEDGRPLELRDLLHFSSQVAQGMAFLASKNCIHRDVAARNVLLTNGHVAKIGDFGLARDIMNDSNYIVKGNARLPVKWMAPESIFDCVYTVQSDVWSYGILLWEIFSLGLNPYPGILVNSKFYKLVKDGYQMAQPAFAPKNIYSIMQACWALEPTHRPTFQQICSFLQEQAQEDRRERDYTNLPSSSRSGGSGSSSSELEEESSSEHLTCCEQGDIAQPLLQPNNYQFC
Chain of CSNK1G3 (Q9Y6M4 whole entry): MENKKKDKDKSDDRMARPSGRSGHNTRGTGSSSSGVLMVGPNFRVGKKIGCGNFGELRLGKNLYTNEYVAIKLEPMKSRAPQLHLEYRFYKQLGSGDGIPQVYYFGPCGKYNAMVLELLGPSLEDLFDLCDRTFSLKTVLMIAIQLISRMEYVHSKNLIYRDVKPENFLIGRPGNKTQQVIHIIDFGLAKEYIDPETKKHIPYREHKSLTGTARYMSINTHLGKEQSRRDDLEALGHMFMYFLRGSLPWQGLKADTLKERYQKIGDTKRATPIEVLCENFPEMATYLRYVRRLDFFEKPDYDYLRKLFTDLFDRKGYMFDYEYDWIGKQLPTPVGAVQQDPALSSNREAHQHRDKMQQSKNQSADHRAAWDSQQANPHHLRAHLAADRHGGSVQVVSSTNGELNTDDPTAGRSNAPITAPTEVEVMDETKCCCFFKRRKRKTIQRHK

C[C@@H]1CC(=O)NN=C1c1ccc(NN=C(C#N)C#N)cc1 [levosimendan]
remaining binding at 100 µM [1]: 68% | remaining binding at 100 µM (ALK(C1156Y)): 64% | remaining binding at 100 µM (ASK1): 100% | remaining binding at 10 µM (BMPR1B; [2]): 82% | remaining binding at 100 µM (BMPR1B; [3]): 36% | remaining binding at 10 µM (CSF1R; [2]): 78% | remaining binding at 100 µM (CSF1R; [3]): 40% | remaining binding at 10 µM (CSNK1G3; [2]): 83% | remaining binding at 100 µM (CSNK1G3; [3]): 36% | remaining binding at 100 µM (EPHA2): 76% | remaining binding at 100 µM (HUNK): 100% | remaining binding at 100 µM (MEK4): 92% | remaining binding at 10 µM (MEK5; [2]): 17% | remaining binding at 100 µM (MEK5; [3]): 2.6% | remaining binding at 100 µM (NIK): 83% | remaining binding at 100 µM (PIK3CA(Q546K)): 100% | remaining binding at 100 µM (PIK3CD): 100% | remaining binding at 10 µM (PIM3; [2]): 75% | remaining binding at 100 µM (PIM3; [3]): 17% | remaining binding at 10 µM (ROCK2; [2]): 49% | remaining binding at 100 µM (ROCK2; [3]): 4.9% | remaining binding at 100 µM (STK35): 81% | remaining binding at 10 µM (TBK1; [2]): 94% | remaining binding at 100 µM (TBK1; [3]): 38% | remaining binding at 100 µM (TNK2): 86%
